Data set [1] concerns cAMP activation in mouse adult neural stem cells. Description: cAMP detection (HitHunter EFC Cyclic AMP Chemiluminescence Assay). To be noted: for Fold Induction cAMP: vs vehicle.
Data set [2] has as its system mouse adult neural stem cells. As to the kind of experiment: ATP-assay: proliferation (ATP levels) of neurosphere-derived cells.
Where [3] appears, read: Table 2, 100 nM (cAMP concentration).
The mark [4] stands for this setting: Table 2, 1000 nM, 4 days, vs vehicle.
Setting [5] is: Table 1, 100 nM, after 15 minutes.

SMILES strings stand for the structures. Marks after values point to notes of the source that are not given here. Bridge positions count the residues as written; N and C are the ends. Peptide text beside a SMILES is read from it.

From patent US6969702B2, “Compounds and methods for increasing neurogenesis” (priority 2002, dated 2005) come the findings set out here.

On to `CC[C@H](C)[C@@H]1NC(=O)[C@H](CCCNC(=N)N)NC(=O)[C@H](CC(=O)O)NC(=O)[C@H](CCSC)NC(=O)[C@H](CCCNC(=N)N)NC(=O)CNC(=O)CNC(=O)[C@H](Cc2ccccc2)NC(=O)[C@@H](NC(=O)[C@H](CO)NC(=O)[C@H](CO)NC(=O)[C@H](CCCNC(=N)N)NC(=O)[C@H](CCCNC(=N)N)NC(=O)[C@H](CC(C)C)NC(=O)[C@@H](N)CO)CSSC[C@@H](C(=O)N[C@@H](CC(N)=O)C(=O)N[C@@H](CO)C(=O)N[C@@H](Cc2ccccc2)C(=O)N[C@@H](CCCNC(=N)N)C(=O)N[C@@H](Cc2ccc(O)cc2)C(=O)O)NC(=O)CNC(=O)[C@H](CC(C)C)NC(=O)CNC(=O)[C@H](CO)NC(=O)[C@H](CCC(N)=O)NC(=O)[C@H](C)NC(=O)CNC(=O)[C@H]([C@@H](C)CC)NC(=O)[C@H](CCCNC(=N)N)NC(=O)[C@H](CC(=O)O)NC(=O)[C@H](CCSC)NC(=O)[C@H](CCCNC(=N)N)NC(=O)CNC(=O)CNC(=O)[C@H](Cc2ccccc2)NC(=O)[C@@H](NC(=O)[C@H](CO)NC(=O)[C@H](CO)NC(=O)[C@H](CCCNC(=N)N)NC(=O)[C@H](CCCNC(=N)N)NC(=O)[C@H](CC(C)C)NC(=O)[C@@H](N)CO)CSSC[C@@H](C(=O)N[C@@H](CC(N)=O)C(=O)N[C@@H](CO)C(=O)N[C@@H](Cc2ccccc2)C(=O)N[C@@H](CCCNC(=N)N)C(=O)N[C@@H](Cc2ccc(O)cc2)C(=O)O)NC(=O)CNC(=O)[C@H](CC(C)C)NC(=O)CNC(=O)[C@H](CO)NC(=O)[C@H](CCC(N)=O)NC(=O)[C@H](C)NC(=O)CNC1=O` [Beta-ANP], for which, in data set [1] (setting [3]), the “cAMP (pmol/well)” value is reported as 070 ± 0.04 pmol/well. Moreover, in data set [2] (Table 2, 100 nM, 4 days), the “ATP (nM ATP/well)” value is listed as 13.6 ± 2.1 nM ATP/well.

Regarding `CC[C@H](C)[C@H](NC(=O)[C@H](Cc1ccccc1)NC(=O)[C@H](CCC(=O)O)NC(=O)[C@H](CCCCN)NC(=O)[C@H](C)NC(=O)[C@H](C)NC(=O)[C@H](CCC(N)=O)NC(=O)CNC(=O)[C@H](CCC(=O)O)NC(=O)[C@H](CC(C)C)NC(=O)[C@H](Cc1ccc(O)cc1)NC(=O)[C@H](CO)NC(=O)[C@H](CO)NC(=O)[C@@H](NC(=O)[C@H](CC(=O)O)NC(=O)[C@H](CO)NC(=O)[C@@H](NC(=O)[C@H](Cc1ccccc1)NC(=O)[C@@H](NC(=O)CNC(=O)[C@H](CCC(=O)O)NC(=O)[C@H](C)NC(=O)[C@@H](N)Cc1c[nH]cn1)[C@@H](C)O)[C@@H](C)O)C(C)C)C(=O)N[C@@H](C)C(=O)N[C@@H](Cc1c[nH]c2ccccc12)C(=O)N[C@@H](CC(C)C)C(=O)N[C@H](C(=O)N[C@@H](CCCCN)C(=O)NCC(=O)N[C@@H](CCCNC(=N)N)C(=O)NCC(=O)O)C(C)C` [Glucagon-Like Peptide-1 (7-37) (Human)], the “cAMP (pmol/well)” value in data set [1] (setting [3]) is 0.08 ± 0.01 pmol/well. Also, the “Fold Induction cAMP” value in data set [1] (Table 2, 100 nM) is 1.4* (100 nM) fold. The “ATP (nM ATP/well)” value in data set [2] (Table 2, 1000 nM, 4 days) is on record as 18.3 ± 1.4 nM ATP/well. In data set [2] (setting [4]), the “Fold Induction ATP” value is reported as 1.3** fold.

Regarding `CC[C@H](C)[C@H](NC(=O)[C@H](C)NC(=O)[C@@H](NC(=O)[C@H](CCC(N)=O)NC(=O)[C@@H]1CCCN1C(=O)[C@H](Cc1ccccc1)NC(=O)[C@@H](NC(=O)[C@H](Cc1c[nH]cn1)NC(=O)[C@H](Cc1ccccc1)NC(=O)[C@H](CCCCN)NC(=O)[C@H](CC(N)=O)NC(=O)[C@H](Cc1ccccc1)NC(=O)[C@H](CC(=O)O)NC(=O)[C@H](CCC(N)=O)NC(=O)[C@@H](NC(=O)[C@H](Cc1ccc(O)cc1)NC(=O)[C@@H](NC(=O)CNC(=O)[C@H](CC(C)C)NC(=O)[C@H](CCSC)NC(=O)[C@@H]1CSSC[C@H](N)C(=O)NCC(=O)N[C@@H](CC(N)=O)C(=O)N[C@@H](CC(C)C)C(=O)N[C@@H](CO)C(=O)N[C@@H]([C@@H](C)O)C(=O)N1)[C@@H](C)O)[C@@H](C)O)[C@@H](C)O)[C@@H](C)O)C(=O)NCC(=O)N[C@H](C(=O)NCC(=O)N[C@@H](C)C(=O)N1CCC[C@H]1C(N)=O)C(C)C` [Calcitonin (human)], the “cAMP (pmol/well)” value in data set [1] (setting [3]) stood at 0.35 ± 0.15 pmol/well. Further, in data set [2] (Table 2, 100 nM, 4 days), the “ATP (nM ATP/well)” value stood at 9.9 ± 1.6 nM ATP/well.

Regarding `CCCCC#Cc1nc(N)c2ncn([C@@H]3O[C@H](C(=O)NCC)[C@@H](O)[C@H]3O)c2n1` [HE-NECA], the “cAMP (pmol/well)” value in data set [1] (Table 2, 10 nM (cAMP concentration)) was 3.32 ± 0.28 pmol/well. In data set [1] (Table 2, 10 nM), the “Fold Induction cAMP” value is reported as 1.8*** (10 nM) fold. Besides, in data set [2] (Table 2, 1000 nM, 4 days), the “ATP (nM ATP/well)” value worked out at 8.2 ± 1.1 nM ATP/well. Moreover, the “Fold Induction ATP” value in data set [2] (setting [4]) is 1.8** fold.

As for `CC[C@H](C)[C@H](NC(=O)[C@H](CCC(N)=O)NC(=O)[C@H](Cc1c[nH]cn1)NC(=O)[C@H](C)NC(=O)[C@@H](N)CC(C)C)C(=O)N[C@@H](Cc1ccc(O)cc1)C(=O)N[C@@H](CCC(N)=O)C(=O)N[C@@H](Cc1ccccc1)C(=O)N[C@H](C(=O)N[C@@H](CC(=O)O)C(=O)N[C@@H](CCCCN)C(=O)N[C@@H](CC(=O)O)C(=O)N[C@@H](CCCCN)C(=O)N[C@@H](CC(=O)O)C(=O)N[C@@H](CC(N)=O)C(=O)N[C@H](C(=O)N[C@@H](C)C(=O)N1CCC[C@H]1C(=O)N[C@@H](CCCNC(=N)N)C(=O)N[C@@H](CO)C(=O)N[C@@H](CCCCN)C(=O)N[C@H](C(=O)N[C@@H](CO)C(=O)N1CCC[C@H]1C(=O)N[C@@H](CCC(N)=O)C(=O)NCC(=O)N[C@@H](Cc1ccc(O)cc1)C(N)=O)[C@@H](C)CC)C(C)C)[C@@H](C)O` [Adrenomedullin (26-52)] (H-LAHQIYQFTDKDKDNVAPRSKISPQGY-NH2; N-terminus and C-terminus assumed), in data set [1] (Table 2, 1 nM (cAMP concentration)), the “cAMP (pmol/well)” value is listed as 0.33 ± 0.07 pmol/well. Further, in data set [2] (Table 2, 1 nM, 4 days), the “ATP (nM ATP/well)” value turned out to be 11.4 ± 0.7 nM ATP/well.

Take `CCCC(=O)Nc1ncnc2c1ncn2[C@@H]1O[C@H](CO)[C@@H](O)[C@H]1OC(=O)CCC` [N-6,2-O-Dibutyryladenosine, n-6,2-o-dibutyryladenosine]: in data set [1] (setting [5]), the “cAMP (pmol/well)” value was determined as 0.10 ± 0.01 pmol/well and the “Fold Induction cAMP” value was 4.5** fold. Also, the “ATP (nM ATP/well)” value in data set [2] (Table 1, 100 nM, 4 days in culture) worked out at 13.9 ± 1.1 nM ATP/well. In addition, the “Fold Induction ATP” value in data set [2] (Table 1, 100 nM, 4 days, vs vehicle treated cells) was 1.5** fold. Besides, the “proliferation of neural stem cells” value in data set [2] (cAMP activators, GPCR-independent) is “increase”.

Consider `CSCC[C@H](NC(=O)[C@H](CC(C)C)NC(=O)[C@@H]1CCCN1C(=O)[C@H](Cc1ccc(O)cc1)NC(=O)[C@H](Cc1ccccc1)NC(=O)[C@@H]1CSSC[C@H](NC(=O)[C@@H]2CCCN2C(=O)[C@@H](N)CCCNC(=N)N)C(=O)N2CCC[C@H]2C(=O)N[C@@H](CCC(N)=O)C(=O)N1)C(N)=O` [[Cys3,6, Tyr8, Pro9]-Substance P] (H-RPCPQCFYPLM-NH2; disulfide 3-6 (inferred); N-terminus and C-terminus assumed), for which the “cAMP (pmol/well)” value in data set [1] (setting [3]) is recorded as 0.29 ± 10 pmol/well. Also, in data set [2] (Table 2, 100 nM, 4 days), the “ATP (nM ATP/well)” value is 11.2 ± 0.4 nM ATP/well.
